Where two headings read alike, the source gives them in different places.

Our source for the Km values is publication PMC10442441, “Characterization of two O-methyltransferases involved in the biosynthesis of O-methylated catechins in tea plant” (Nature Communications, 2023).

The experiment concerns the target T1, CsFAOMT1 (Camellia sinensis, UniProt A0A7J7GXF2).
T1 construct: gene HYC85_015345
The conditions noted are these: 1.0 mM Mg2+, pH 7.4, 40 °C, exact value in supplement.

T1 sequence (A0A7J7GXF2 entry or part of it): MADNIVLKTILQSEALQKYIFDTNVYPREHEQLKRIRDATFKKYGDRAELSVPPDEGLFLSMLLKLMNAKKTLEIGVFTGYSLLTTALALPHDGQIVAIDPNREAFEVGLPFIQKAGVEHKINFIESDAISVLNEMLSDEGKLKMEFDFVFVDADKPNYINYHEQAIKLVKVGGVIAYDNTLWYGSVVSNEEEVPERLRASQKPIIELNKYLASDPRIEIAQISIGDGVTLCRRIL

For the compound `O=c1c(O[C@@H]2O[C@H](CO)[C@@H](O)[C@H](O)[C@H]2O)c(-c2ccc(O)c(O)c2)oc2cc(O)cc(O)c12` [isoquercitrin], where the note is “1 mM SAM”, the Km (commonly the concentration of substrate that gives half-maximal velocity) was over 2500 µM.
Take `COC(=O)c1cc(O)c(O)c(O)c1` [methyl gallate]: for the setting “saturating SAM”, the Michaelis-Menten constant (Km) was under 4 µM.
Turning to `O=c1c(O)c(-c2cc(O)c(O)c(O)c2)oc2cc(O)cc(O)c12` [myricetin], the Km (saturating SAM) is under 4 µM.
